Test: recombinant UMI read abundance after kanamycin selection (control-corrected) (log10(CPM+1)); higher = more efficient recombination; extreme values may be limits of the assay; sequences stand for … in AGTGCAGAGAAAATCGGCCAGTTTTCTCTGCCTGCAGTCCGCATGCCGTGGGACCCCTTGGGTTCTAACCTGTTGCCTAGATTTATGCAGCGGACTGCCTTTCTCCCAAAGTGATAAACCGG…AGGTTGGTTTCACT; site = the 11-nt donor
Outline: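 Pooled Escherichia coli screen of donor and donor-binding-loop pairs for the IS621 bridge recombinase. Each pair sits with a 12-nt UMI on a plasmid carrying a promoterless kanamycin gene. The library was co-electroporated with a target plasmid encoding a fixed target and T7-inducible recombinase, then plated with IPTG (0.07 mM) plus kanamycin, or unselected, each in two replicates. Recombinant UMIs were PCR-amplified across the donor–target junction and sequenced. Counts became CPM, averaged over replicates, scaled by control-derived factors and reported as log10(CPM+1).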
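Note: IS621 bridge recombinase in Escherichia coli cells against a fixed T5 target plasmid.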

Sequence	recombinant UMI read abundance (log10)
GAAAAGGCATGGACCGGTTTTCCCGGTAATCCGTATTTGTT (site GAAAAGGCTAA)	2.58
GAAAATGCATGGACCGGTTTTCCCGGTAATCCGTATTTGAG (site GAAAATGCTCT)	2.25
GAAACCACATGGACCGGTTTTCCCGGTAATCCGTATTTGGT (site GAAACCACTAC)	0.48
GAAAGTCCATGGACCGGTTTTCCCGGTAATCCGTATTTGGA (site GAAAGTCCTTC)	0.0128
GAACATACATGGACCGGTTTTCCCGGTAATCCGTATTTGGG (site GAACATACTCC)	0.24
GAACGTACATGGACCGGTTTTCCCGGTAATCCGTATTTGCT (site GAACGTACTAG)	2.26
GAAGATACATGGACCGGTTTTCCCGGTAATCCGTATTTGTT (site GAAGATACTAA)	2.29
GAAGATACATGGACCGGTTTTCCCGGTAATCCGTATTTGTT (site GAAGATCCTAA)	0.00569
GAAGATACATGGACCGGTTTTCCCGGTAATCCGTATTTGTT (site GAAGATGCTAA)	0.602
GAAGATACATGGACCGGTTTTCCCGGTAATCCGTATTTGTT (site GAAGATTCTAA)	0
GAAGATTCATGGACCGGTTTTCCCGGTAATCCGTATTTGTT (site AAAGATTCTAA)	1.45
GAAGATTCATGGACCGGTTTTCCCGGTAATCCGTATTTGTT (site CAAGATTCTAA)	1.81
GAAGATTCATGGACCGGTTTTCCCGGTAATCCGTATTTGTT (site GAAAATTCTAA)	0.371
GAAGATTCATGGACCGGTTTTCCCGGTAATCCGTATTTGTT (site GAACATTCTAA)	0
GAAGATTCATGGACCGGTTTTCCCGGTAATCCGTATTTGTT (site GAAGAATCTAA)	1.3
GAAGATTCATGGACCGGTTTTCCCGGTAATCCGTATTTGTT (site GAAGACTCTAA)	1.24
GAAGATTCATGGACCGGTTTTCCCGGTAATCCGTATTTGTT (site GAAGAGTCTAA)	0.0122
GAAGATTCATGGACCGGTTTTCCCGGTAATCCGTATTTGTT (site GAAGATACTAA)	0.46
GAAGATTCATGGACCGGTTTTCCCGGTAATCCGTATTTGTT (site GAAGATCCTAA)	1.92
GAAGATTCATGGACCGGTTTTCCCGGTAATCCGTATTTGTT (site GAAGATGCTAA)	0.0075
GAAGATTCATGGACCGGTTTTCCCGGTAATCCGTATTTGTT (site GAAGATTCTAA)	2.86
GAAGATTCATGGACCGGTTTTCCCGGTAATCCGTATTTGTT (site GAAGATTCTAC)	0.242
GAAGATTCATGGACCGGTTTTCCCGGTAATCCGTATTTGTT (site GAAGATTCTAG)	0.838

Sequence	recombinant UMI read abundance (log10)
GAAGATTCATGGACCGGTTTTCCCGGTAATCCGTATTTGTT (site GAAGATTCTAT)	1.5
GAAGATTCATGGACCGGTTTTCCCGGTAATCCGTATTTGTT (site GAAGATTCTCA)	0.868
GAAGATTCATGGACCGGTTTTCCCGGTAATCCGTATTTGTT (site GAAGATTCTGA)	0
GAAGATTCATGGACCGGTTTTCCCGGTAATCCGTATTTGTT (site GAAGATTCTTA)	1.2
GAAGATTCATGGACCGGTTTTCCCGGTAATCCGTATTTGTT (site GAAGCTTCTAA)	0.0109
GAAGATTCATGGACCGGTTTTCCCGGTAATCCGTATTTGTT (site GAAGGTTCTAA)	0.0539
GAAGATTCATGGACCGGTTTTCCCGGTAATCCGTATTTGTT (site GAAGTTTCTAA)	0
GAAGATTCATGGACCGGTTTTCCCGGTAATCCGTATTTGTT (site GAATATTCTAA)	0
GAAGATTCATGGACCGGTTTTCCCGGTAATCCGTATTTGTT (site GACGATTCTAA)	0
GAAGATTCATGGACCGGTTTTCCCGGTAATCCGTATTTGTT (site GAGGATTCTAA)	0
GAAGATTCATGGACCGGTTTTCCCGGTAATCCGTATTTGTT (site GATGATTCTAA)	0.296
GAAGATTCATGGACCGGTTTTCCCGGTAATCCGTATTTGTT (site GCAGATTCTAA)	0.013
GAAGATTCATGGACCGGTTTTCCCGGTAATCCGTATTTGTT (site GGAGATTCTAA)	0.379
GAAGATTCATGGACCGGTTTTCCCGGTAATCCGTATTTGTT (site GTAGATTCTAA)	0.39
GAAGATTCATGGACCGGTTTTCCCGGTAATCCGTATTTGTT (site TAAGATTCTAA)	2.36
GAAGCAACATGGACCGGTTTTCCCGGTAATCCGTATTTGCC (site GAAGCAACTGG)	2.09
GAAGCTTCATGGACCGGTTTTCCCGGTAATCCGTATTTGTT (site GAAGATTCTAA)	0
GAAGCTTCATGGACCGGTTTTCCCGGTAATCCGTATTTGTT (site GAAGCTTCTAA)	1.74
GAAGCTTCATGGACCGGTTTTCCCGGTAATCCGTATTTGTT (site GAAGGTTCTAA)	0
GAAGCTTCATGGACCGGTTTTCCCGGTAATCCGTATTTGTT (site GAAGTTTCTAA)	0
GAAGTATCATGGACCGGTTTTCCCGGTAATCCGTATTTGCA (site ACAGTATCTTG)	1.54
GAAGTATCATGGACCGGTTTTCCCGGTAATCCGTATTTGCA (site GAAGTATCTTG)	2.6
GAATATGCATGGACCGGTTTTCCCGGTAATCCGTATTTGAA (site GAATATGCTTT)	2.09

Sequence	recombinant UMI read abundance (log10)
GAATCCGCATGGACCGGTTTTCCCGGTAATCCGTATTTGTC (site GAATCCGCTGA)	2.15
GAATCTACATGGACCGGTTTTCCCGGTAATCCGTATTTGCG (site GAATCTACTCG)	1.04
GAATGAGCATGGACCGGTTTTCCCGGTAATCCGTATTTGGA (site GAATGAGCTTC)	1.28
GAATGCCCATGGACCGGTTTTCCCGGTAATCCGTATTTGCA (site GAATGACCTTG)	0
GAATGCCCATGGACCGGTTTTCCCGGTAATCCGTATTTGCA (site GAATGCCCTTG)	1.25
GAATGCCCATGGACCGGTTTTCCCGGTAATCCGTATTTGCA (site GAATGGCCTTG)	0
GAATGCCCATGGACCGGTTTTCCCGGTAATCCGTATTTGCA (site GAATGTCCTTG)	0
GAATGTCCATGGACCGGTTTTCCCGGTAATCCGTATTTGCA (site GAATGACCTTG)	0
GAATGTCCATGGACCGGTTTTCCCGGTAATCCGTATTTGCA (site GAATGCCCTTG)	0
GAATGTCCATGGACCGGTTTTCCCGGTAATCCGTATTTGCA (site GAATGGCCTTG)	0
GAATGTCCATGGACCGGTTTTCCCGGTAATCCGTATTTGCA (site GAATGTCCTTG)	1.28
GAATTCCCATGGACCGGTTTTCCCGGTAATCCGTATTTGCT (site AAATTCCCTAG)	0
GAATTCCCATGGACCGGTTTTCCCGGTAATCCGTATTTGCT (site CAATTCCCTAG)	0.484
GAATTCCCATGGACCGGTTTTCCCGGTAATCCGTATTTGCT (site GAATTCCCTAG)	0.671
GAATTCCCATGGACCGGTTTTCCCGGTAATCCGTATTTGCT (site TAATTCCCTAG)	0.902
GACAAACCATGGACCGGTTTTCCCGGTAATCCGTATTTGGC (site GACAAACCTAC)	0
GACAAACCATGGACCGGTTTTCCCGGTAATCCGTATTTGGC (site GACAAACCTCC)	0
GACAAACCATGGACCGGTTTTCCCGGTAATCCGTATTTGGC (site GACAAACCTGC)	0
GACAAACCATGGACCGGTTTTCCCGGTAATCCGTATTTGGC (site GACAAACCTTC)	0
GACAAAGCATGGACCGGTTTTCCCGGTAATCCGTATTTGGT (site GACAAAACTAC)	0.00355
GACAAAGCATGGACCGGTTTTCCCGGTAATCCGTATTTGGT (site GACAAACCTAC)	0
GACAAAGCATGGACCGGTTTTCCCGGTAATCCGTATTTGGT (site GACAAAGCTAC)	1.13
